For data set [1], the system named is human cytoplasmic ribosome (Cyt 14 hybrid). Briefly: Selectivity ratio of IC50 for inhibition of human cytoplasmic ribosome Cyt 14 hybridized with Mycobacterium smegmatis ribosomes to IC50 for inhibition of Mycobacterium smegmatis wild type ribosomes. The class given is toxicity. The following applies: read-out: Ratio IC50.
For data set [2], the system named is human mitochondrial ribosome A1555G mutant (Mit 13 A1555G hybrid). Briefly: Selectivity ratio of IC50 for inhibition of human mitochondrial ribosome Mit 13 A1555G mutant hybridized with Mycobacterium smegmatis ribosomes to IC50 for inhibition of Mycobacterium smegmatis wild type ribosomes. Particulars: read-out: Ratio IC50. It counts as toxicity.
Data set [3] has as its system human mitochondrial ribosome (Mit 13 hybrid). As to the kind of experiment: Selectivity ratio of IC50 for inhibition of human mitochondrial ribosome Mit 13 hybridized with Mycobacterium smegmatis ribosome to IC50 for inhibition of Mycobacterium smegmatis wild type ribosomes. It counts as toxicity. Particulars: read-out: Ratio IC50.
Data set [4] in a line: Inhibition of human mitochondrial ribosome Mit 13 A1555G mutant hybridized with Mycobacterium smegmatis ribosome assessed as inhibition of translation activity using Firefly luciferase mRNA reporter based luminescence analysis.
Data set [5] in a line: Inhibition of human cytoplasmic ribosome Cyt 14 hybridized with Mycobacterium smegmatis ribosome assessed as inhibition of translation activity using Firefly luciferase mRNA reporter based luminescence analysis.
Data set [6] in a line: Inhibition of human mitochondrial ribosome Mit 13 hybridized with Mycobacterium smegmatis ribosome assessed as inhibition of translation activity using Firefly luciferase mRNA reporter based luminescence analysis.
For data set [7], the target named is Bacterial 70S ribosome. Briefly: Inhibition of Mycobacterium smegmatis wild type ribosomes assessed as inhibition of translation activity using Firefly luciferase mRNA reporter based luminescence analysis. It counts as subcellular, Mycolicibacterium smegmatis.
The test system of data set [8] is Pseudomonas aeruginosa. As to the kind of experiment: Antibacterial activity against Pseudomonas aeruginosa clinical isolate AG033. The class given is functional.
The test system of data set [9] is Pseudomonas aeruginosa. As to the kind of experiment: Antibacterial activity against Pseudomonas aeruginosa clinical isolate AG032. It counts as functional.
Data set [10] has as its system Staphylococcus aureus. Briefly: Antibacterial activity against methicillin-resistant Staphylococcus aureus clinical isolate AG042 harboring with ANT4',4\" gene. The class given is functional.
Data set [11] relates to Staphylococcus aureus. Briefly: Antibacterial activity against methicillin-resistant Staphylococcus aureus clinical isolate AG038. The class given is functional.
The test system of data set [12] is Staphylococcus aureus. Briefly: Antibacterial activity against methicillin-resistant Staphylococcus aureus clinical isolate AG039. It counts as functional.
Data set [13] relates to Pseudomonas aeruginosa. Briefly: Antibacterial activity against Pseudomonas aeruginosa clinical isolate AG031. The class given is functional.
In data set [14] the test system is Escherichia coli. As to the kind of experiment: Antibacterial activity against Escherichia coli clinical isolate AG003. It counts as functional.
Data set [15] relates to Escherichia coli. Briefly: Antibacterial activity against Escherichia coli clinical isolate AG055. It counts as functional.
For data set [16], the system named is Escherichia coli. Briefly: Antibacterial activity against Escherichia coli clinical isolate AG001. It counts as functional.

This passage reports selectivity ratio, IC50 and MIC results from ChEMBL document CHEMBL4373646, “Synthesis, ribosomal selectivity, and antibacterial activity of netilmicin 4'-derivatives” (Medchemcomm, 2019).

Converted amounts (≈) assume the structure as drawn.

By IC50 is commonly meant the concentration that inhibits the measured activity by half. As for `CCC[C@H]1[C@H](O)[C@@H](N)[C@@H](O[C@H]2[C@H](O[C@@H]3O[C@H](CO)[C@@H](O[C@H]4O[C@@H](CN)[C@@H](O)[C@H](O)[C@H]4N)[C@H]3O)[C@@H](O)[C@H](N)C[C@@H]2N)O[C@@H]1CO`, the selectivity ratio in [1] is 2060; in data set [2] it was 1680; in [3] it was 5390. In addition, the IC50 in [4] was 52 µM; in [5] it was 64 µM; in data set [6], 167 µM; in data set [7], 31 nM.
As usually defined, the MIC is the smallest concentration in the dilution series that meets the test's criterion for growth inhibition. Read a high MIC as a need for much substance. Turning to `CCN[C@@H]1C[C@H](N)[C@@H](O[C@H]2OC(CN)=C(I)C[C@H]2N)[C@H](O)[C@H]1O[C@H]1OC[C@](C)(O)[C@H](NC)[C@H]1O`, the MIC in [8] was over 128 µg/mL; in data set [9] it was 4 to 8 µg/mL (≈ 6.65 to 13.3 µM); in [10], 64 µg/mL (≈ 106 µM); in data set [11], 4 to 8 µg/mL (≈ 6.65 to 13.3 µM); in [12], 16 µg/mL (≈ 26.6 µM); in data set [13] it was 4 to 8 µg/mL (≈ 6.65 to 13.3 µM). Moreover, the MIC in [14] is 16 µg/mL (≈ 26.6 µM); in data set [15], 1 to 2 µg/mL (≈ 1.66 to 3.33 µM); in data set [16], 2 µg/mL (≈ 3.33 µM). In addition, the selectivity ratio came to 2210 in data set [1], 15 in [2] and 490 in [3]. In addition, the concentration for half-maximal inhibition (IC50) came out at 1.5 µM in [4], 221 µM in data set [5], 49 µM in data set [6] and 100 nM in data set [7].
On to `CCN[C@@H]1C[C@H](N)[C@@H](O[C@H]2OC(CN)=C(Cl)C[C@H]2N)[C@H](O)[C@H]1O[C@H]1OC[C@](C)(O)[C@H](NC)[C@H]1O`, for which the minimal inhibitory concentration (MIC) is over 128 µg/mL in [8]; 64 µg/mL (≈ 125 µM) in data set [9]; 32 µg/mL (≈ 62.7 µM) in [10]; 4 µg/mL (≈ 7.84 µM) in data set [11]; 8 µg/mL (≈ 15.7 µM) in [12]; 4 µg/mL (≈ 7.84 µM) in data set [13]. Moreover, the minimal inhibitory concentration (MIC) in data set [14] is 16 to 32 µg/mL (≈ 31.4 to 62.7 µM); in [15] it was 2 to 4 µg/mL (≈ 3.92 to 7.84 µM); in data set [16] it was 4 µg/mL (≈ 7.84 µM). Moreover, the selectivity ratio in [1] is over 5000; in data set [2], 15; in data set [3], 580. Also, the IC50 in [4] is 1.5 µM; in data set [5], over 500 µM; in data set [6], 58 µM; in data set [7] it was 100 nM.
For `CCN[C@@H]1C[C@H](N)[C@@H](O[C@H]2OC(CN)=CC[C@H]2N)[C@H](O)[C@H]1O[C@H]1OC[C@](C)(O)[C@H](NC)[C@H]1O` [NETILMICIN], the minimal inhibitory concentration (MIC) in [8] is over 128 µg/mL; in [9], 2 µg/mL (≈ 4.21 µM); in [10], 2 µg/mL (≈ 4.21 µM); in data set [11], 0.5 µg/mL (≈ 1.05 µM); in data set [12], 0.5 µg/mL (≈ 1.05 µM); in data set [13], 2 µg/mL (≈ 4.21 µM). Further, the MIC in [14] worked out at 8 µg/mL (≈ 16.8 µM); in [15], 2 µg/mL (≈ 4.21 µM); in data set [16], 2 µg/mL (≈ 4.21 µM). Moreover, the selectivity ratio in data set [1] came to 3450; in [2], 35; in [3], 1400. In addition, the IC50 in data set [4] was determined as 0.7 µM; in data set [5] it was 69 µM; in [6], 28 µM; in data set [7] it was 20 nM.
As for `CCN[C@@H]1C[C@H](N)[C@@H](O[C@H]2OC(CN)=C(SCC)C[C@H]2N)[C@H](O)[C@H]1O[C@H]1OC[C@](C)(O)[C@H](NC)[C@H]1O`, the MIC was over 128 µg/mL in data set [8]; 128 µg/mL (≈ 239 µM) in data set [9]; 128 µg/mL (≈ 239 µM) in data set [10]; 32 µg/mL (≈ 59.7 µM) in data set [11]; 32 µg/mL (≈ 59.7 µM) in data set [12]; over 128 µg/mL in data set [13]. Further, the MIC in [14] is 8 to 16 µg/mL (≈ 14.9 to 29.9 µM); in data set [15], 8 to 16 µg/mL (≈ 14.9 to 29.9 µM); in data set [16], 16 µg/mL (≈ 29.9 µM). Moreover, the selectivity ratio in data set [1] was 1160; in [2] it was 69; in data set [3], 381. Moreover, the IC50 in data set [4] was 46 µM; in [5], 783 µM; in data set [6] it was 256 µM; in data set [7], 670 nM.
In the case of `CCS[C@H]1[C@H](O)[C@@H](N)[C@@H](O[C@H]2[C@H](O[C@@H]3O[C@H](CO)[C@@H](O[C@H]4O[C@@H](CN)[C@@H](O)[C@H](O)[C@H]4N)[C@H]3O)[C@@H](O)[C@H](N)C[C@@H]2N)O[C@@H]1CO`, the selectivity ratio in [1] came to 1960; in data set [2], 1430; in data set [3] it was 3130. Moreover, the half-inhibitory concentration (IC50) in [4] amounted to 76 µM; in data set [5], 104 µM; in data set [6], 166 µM; in data set [7] it was 53 nM.
Take `CCN[C@@H]1C[C@H](N)[C@@H](O[C@H]2OC(CN)=C(c3ccccc3)C[C@H]2N)[C@H](O)[C@H]1O[C@H]1OC[C@](C)(O)[C@H](NC)[C@H]1O`: the minimal inhibitory concentration (MIC) is over 64 µg/mL in data set [8]; 16 to 32 µg/mL (≈ 29 to 58 µM) in [9]; 64 µg/mL (≈ 116 µM) in data set [10]; 8 µg/mL (≈ 14.5 µM) in data set [11]; 16 µg/mL (≈ 29 µM) in data set [12]; 16 to 32 µg/mL (≈ 29 to 58 µM) in [13]. Moreover, the results for the minimal inhibitory concentration (MIC) in data set [14], in data set [15] and in data set [16] were 64 µg/mL (≈ 116 µM), 2 µg/mL (≈ 3.63 µM) and 4 µg/mL (≈ 7.25 µM), respectively. Also, the selectivity ratio came to 299 in data set [1], 13 in data set [2] and 106 in data set [3]. The IC50 in [4] amounted to 3.5 µM; in data set [5], 81 µM; in [6], 29 µM; in data set [7] it was 270 nM.
Regarding `CCN[C@@H]1C[C@H](N)[C@@H](O[C@H]2OC(CN)=C(Br)C[C@H]2N)[C@H](O)[C@H]1O[C@H]1OC[C@](C)(O)[C@H](NC)[C@H]1O`, the minimum inhibitory concentration (MIC) was 64 µg/mL (≈ 115 µM) in data set [8]; 8 µg/mL (≈ 14.4 µM) in data set [9]; 64 µg/mL (≈ 115 µM) in [10]; 4 µg/mL (≈ 7.21 µM) in data set [11]; 8 to 16 µg/mL (≈ 14.4 to 28.9 µM) in [12]; 8 µg/mL (≈ 14.4 µM) in data set [13]. For the same compound, the minimal inhibitory concentration (MIC) in data set [14] was 16 µg/mL (≈ 28.9 µM); in data set [15], 1 to 2 µg/mL (≈ 1.8 to 3.61 µM); in data set [16], 2 µg/mL (≈ 3.61 µM). In addition, the values for the selectivity ratio in data set [1], in data set [2] and in [3] were 1460, 12 and 520, respectively. The IC50 was 1.2 µM in data set [4], 146 µM in [5], 52 µM in data set [6] and 100 nM in data set [7].
Regarding `NC[C@@H]1O[C@H](O[C@H]2[C@@H](O)[C@H](O[C@@H]3[C@@H](O)[C@H](N)C[C@H](N)[C@H]3O[C@H]3O[C@H](CO)[C@@H](O)[C@H](O)[C@H]3N)O[C@@H]2CO)[C@H](N)[C@@H](O)[C@@H]1O` [PAROMOMYCIN], the selectivity ratio in data set [1] stood at 816; in data set [2] it was 315; in [3], 3740. In addition, the IC50 in [4] was 12 µM; in data set [5] it was 31 µM; in [6], 142 µM; in [7], 38 nM.
Regarding `CCCCC1=C(CN)O[C@H](O[C@H]2[C@H](O)[C@@H](O[C@H]3OC[C@](C)(O)[C@H](NC)[C@H]3O)[C@H](NCC)C[C@@H]2N)[C@H](N)C1`, the minimum inhibitory concentration (MIC) is over 128 µg/mL in data set [8]; 64 µg/mL (≈ 120 µM) in data set [9]; 64 µg/mL (≈ 120 µM) in [10]; 16 µg/mL (≈ 30.1 µM) in data set [11]; 16 µg/mL (≈ 30.1 µM) in data set [12]; 64 µg/mL (≈ 120 µM) in data set [13]. Also, the MIC was 8 to 16 µg/mL (≈ 15 to 30.1 µM) in data set [14], 5 µg/mL (≈ 9.4 µM) in data set [15] and 8 to 16 µg/mL (≈ 15 to 30.1 µM) in [16]. In addition, the selectivity ratio in data set [1] turned out to be 1610; in data set [2], 37; in [3] it was 699. The concentration for half-maximal inhibition (IC50) stood at 22 µM in data set [4], 940 µM in [5], 408 µM in data set [6] and 580 nM in data set [7].
